Experiment [1] deals with Cabbage Looper (Trichoplusia ni) ("CL"), second instar larvae. The experiment can be described thus: Bioassay on cabbage looper (CL), 128-well diet tray assay. Type of experiment: in vivo. Conditions: for pest or weed control at 50 µg/cm2: Trichoplusia ni, read-out: CL rating; for CL rating: Table ABC, species CL, C = not tested, D = no activity noticed. Summed up:
(§1)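 Mortality (%) is scored well by well after five to seven days at 25° C. on a 14:10 light:dark regime. The value given is the mean of eight wells.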

For experiment [2], the system named is Beet Armyworm (Spodoptera exigua) ("BAW"), second instar larvae. Description: Bioassay on beet armyworm (BAW), 128-well diet tray assay. Conditions: for pest or weed control at 50 µg/cm2: Spodoptera exigua, read-out: BAW rating; for BAW rating: Table ABC, species BAW, C = not tested, D = no activity noticed. Type of experiment: in vivo. Summed up:
as §1

The record followed here is patent publication US20230077362A1 (CORTEVA AGRISCIENCE LLC, priority 2019, published 2023).

Consider `Cc1ccc(OCCC(F)(F)F)c(N2C(=O)CS/C2=N\C(=O)Nc2ccc(-n3cnc(-c4ccc(OC(F)(F)F)cc4)n3)cc2Cl)c1` [Compound J737, (Z)-1-(2-Chloro-4-(3-(4-(trifluoromethoxy)phenyl)-1H-1,2,4-triazol-1-yl)phenyl)-3-(3-(5-methyl-2-(3,3,3-trifluoropropoxy)phenyl)-4-oxothiazolidin-2-ylidene)urea], for which the pest or weed control at 50 µg/cm2 in experiment [1] and in experiment [2] was 50 to 100% each time.
As to `Cc1cc(COCC(F)(F)F)c(N2C(=O)CS/C2=N\C(=O)Nc2ccc(-c3ncn(-c4cccc(OC(F)(F)F)c4)n3)cc2F)cc1C` [Compound J738], in experiment [1], the CL rating result is given as “A (50-100)”. Besides, the BAW rating entry in experiment [2] was “A (50-100)”.
On to `Cc1ccc(-n2cnc(-c3ccc(NC(=O)/N=C4\SCC(=O)N4c4cc(C)ccc4COCC(F)(F)F)c(F)c3)n2)cc1` [Compound J752], for which the CL rating entry in experiment [1] is “A (50-100)”. Also, the BAW rating entry in experiment [2] is recorded as “A (50-100)”.
With `CCOCc1ccc(C)cc1N1C(=O)CS/C1=N\C(=O)Nc1ccc(-c2ncn(-c3ccc(C)cc3)n2)cc1F` [Compound J753, (Z)-1-(3-(2-(Ethoxymethyl)-5-methylphenyl)-4-oxothiazolidin-2-ylidene)-3-(2-fluoro-4-(1-(p-tolyl)-1H-1,2,4-triazol-3-yl)phenyl)urea], the pest or weed control at 50 µg/cm2 in experiment [1] and in experiment [2] was 50 to 100% each time.
For `COc1ccc(-n2cnc(-c3ccc(NC(=O)/N=C4\SCC(=O)N4c4cc(C)ccc4COCC(F)(F)F)c(F)c3)n2)cc1` [Compound J754, (Z)-1-(2-Fluoro-4-(1-(4-methoxyphenyl)-1H-1,2,4-triazol-3-yl)phenyl)-3-(3-(5-methyl-2-((2,2,2-trifluoroethoxy)methyl)phenyl)-4-oxothiazolidin-2-ylidene)urea], the pest or weed control at 50 µg/cm2 in experiment [1] and in experiment [2] was 50 to 100% each time.
As to `CCOCc1ccc(C)cc1N1C(=O)CS/C1=N\C(=O)Nc1ccc(-c2ncn(-c3ccc(OC)cc3)n2)cc1F` [Compound J755, (Z)-1-(3-(2-(Ethoxymethyl)-5-methylphenyl)-4-oxothiazolidin-2-ylidene)-3-(2-fluoro-4-(1-(4-methoxyphenyl)-1H-1,2,4-triazol-3-yl)phenyl)urea], the pest or weed control at 50 µg/cm2 in experiment [1] and in experiment [2] was 50 to 100% each time.
In the case of `COc1ccc(-n2cnc(-c3ccc(NC(=O)/N=C4\SCC(=O)N4c4cc(C)c(C)cc4COCC(F)(F)F)c(F)c3)n2)cc1` [Compound J756, (Z)-1-(3-(4,5-Dimethyl-2-((2,2,2-trifluoroethoxy)methyl)phenyl)-4-oxothiazolidin-2-ylidene)-3-(2-fluoro-4-(1-(4-methoxyphenyl)-1H-1,2,4-triazol-3-yl)phenyl)urea], the pest or weed control at 50 µg/cm2 in experiment [1] and in experiment [2] was 50 to 100% throughout.
Consider `COc1ccc(-n2cnc(-c3ccc(NC(=O)/N=C4\SCC(=O)N4c4cc(C)ccc4COCC(F)F)c(F)c3)n2)cc1` [Compound J757, (Z)-1-(3-(2-((2,2-Difluoroethoxy)methyl)-5-methylphenyl)-4-oxothiazolidin-2-ylidene)-3-(2-fluoro-4-(1-(4-methoxyphenyl)-1H-1,2,4-triazol-3-yl)phenyl)urea], for which the pest or weed control at 50 µg/cm2 in experiment [1] and in experiment [2] was 50 to 100% throughout.
As to `Cc1ccc(Cc2cccnc2)c(N2C(=O)CS/C2=N\C(=O)Nc2ccc(-c3ncn(-c4ccc(C(F)(F)F)cc4)n3)cc2F)c1` [Compound J758, (Z)-1-(2-Fluoro-4-(1-(4-(trifluoromethyl)phenyl)-1H-1,2,4-triazol-3-yl)phenyl)-3-(3-(5-methyl-2-(pyridin-3-ylmethyl)phenyl)-4-oxothiazolidin-2-ylidene)urea], the pest or weed control at 50 µg/cm2 in experiment [1] and in experiment [2] was 50 to 100% in each case.
Consider `Cc1ccc(COCC(F)(F)F)c(N2C(=O)CS/C2=N\C(=O)Nc2ccc(-c3ncn(-c4cc(C(F)(F)F)cc(C(F)(F)F)c4)n3)cc2F)c1` [Compound J760, (Z)-1-(4-(1-(3,5-Bis(trifluoromethyl)phenyl)-1H-1,2,4-triazol-3-yl)-2-fluorophenyl)-3-(3-(5-methyl-2-((2,2,2-trifluoroethoxy)methyl)phenyl)-4-oxothiazolidin-2-ylidene)urea], for which the pest or weed control at 50 µg/cm2 in experiment [1] was in the range of 0 to 50%; in experiment [2] it was 50 to 100%.
Regarding `CCOCc1ccc(C)cc1N1C(=O)CS/C1=N\C(=O)Nc1ccc(-c2ncn(-c3cc(C(F)(F)F)cc(C(F)(F)F)c3)n2)cc1F` [Compound J761], the CL rating entry in experiment [1] is “A (50-100)”. Moreover, the BAW rating entry in experiment [2] is given as “A (50-100)”.
Consider `CCOCc1ccc(C)cc1N1C(=O)CS/C1=N\C(=O)Nc1ccc(-c2ncn(-c3cc(C(F)(F)F)cc(C(F)(F)F)c3)n2)cc1C` [Compound J763, (Z)-1-(4-(1-(3,5-Bis(trifluoromethyl)phenyl)-1H-1,2,4-triazol-3-yl)-2-methylphenyl)-3-(3-(2-(ethoxymethyl)-5-methylphenyl)-4-oxothiazolidin-2-ylidene)urea], for which the pest or weed control at 50 µg/cm2 in experiment [1] and in experiment [2] was 50 to 100% each time.
As for `Cc1ccc(COCC(F)(F)F)c(N2C(=O)CS/C2=N\C(=O)Nc2ccc(-c3ncn(-c4ccc(OCC(F)(F)F)cc4)n3)cc2F)c1` [Compound J764, (Z)-1-(2-Fluoro-4-(1-(4-(2,2,2-trifluoroethoxy)phenyl)-1H-1,2,4-triazol-3-yl)phenyl)-3-(3-(5-methyl-2-((2,2,2-trifluoroethoxy)methyl)phenyl)-4-oxothiazolidin-2-ylidene)urea], the pest or weed control at 50 µg/cm2 in experiment [1] and in experiment [2] was 50 to 100% in each case.
In the case of `Cc1ccc(COCC(F)(F)F)c(N2C(=O)CS/C2=N\C(=O)Nc2ccc(-c3ncn(-c4ccc(OCC(F)(F)F)nc4)n3)cc2F)c1` [Compound J765, (Z)-1-(2-Fluoro-4-(1-(6-(2,2,2-trifluoroethoxy)pyridin-3-yl)-1H-1,2,4-triazol-3-yl)phenyl)-3-(3-(5-methyl-2-((2,2,2-trifluoroethoxy)methyl)phenyl)-4-oxothiazolidin-2-ylidene)urea], the pest or weed control at 50 µg/cm2 in experiment [1] and in experiment [2] was 50 to 100% in each case.
As for `CCOCc1ccc(C)cc1N1C(=O)CS/C1=N\C(=O)Nc1ccc(-c2ncn(-c3ccc(OCC(F)(F)F)cc3)n2)cc1F` [Compound J766, (Z)-1-(3-(2-(Ethoxymethyl)-5-methylphenyl)-4-oxothiazolidin-2-ylidene)-3-(2-fluoro-4-(1-(4-(2,2,2-trifluoroethoxy)phenyl)-1H-1,2,4-triazol-3-yl)phenyl)urea], the pest or weed control at 50 µg/cm2 in experiment [1] and in experiment [2] was 50 to 100% throughout.
In the case of `Cc1ccc(COCC(F)(F)F)c(N2C(=O)CS/C2=N\C(=O)Nc2ccc(-c3nnn(-c4ccc(OC(F)(F)F)cc4)n3)cc2)c1` [Compound J767, (Z)-1-(3-(5-Methyl-2-((2,2,2-trifluoroethoxy)methyl)phenyl)-4-oxothiazolidin-2-ylidene)-3-(4-(2-(4-(trifluoromethoxy)phenyl)-2H-tetrazol-5-yl)phenyl)urea], the pest or weed control at 50 µg/cm2 in experiment [1] and in experiment [2] was 50 to 100% throughout.
